# Measurements as given in ChEMBL document CHEMBL4340508, “Synthesis and evaluation of tetrahydroisoquinoline-benzimidazole hybrids as multifunctional agents for the treatment of Alzheimer's disease” (Eur J Med Chem, 2019).
# The source made the active and inactive calls. The calls are words filed in the database; no cut-off is given here.
# What was measured:
# [1] = molecular target: Cholinesterase (Homo sapiens) (UniProt P06276); test: Inhibition of human serum BuChE at 10 uM using butyrylthiocholine chloride as substrate preincubated for 15 mins followed by substrate addition and measured at 1 min time interval by Ellman's method relative to control
# BV-2 [2] = test: Antineuroinflammatory activity in mouse BV2 cells assessed as inhibition of LPS-induced nitric oxide production pretreated for 30 mins followed by LPS-stimulation for 24 hrs by Griess assay; assay type: functional, cell-based
# [3] = Permeability of the compound in PBS/EtOH at 100 ug/ml after 10 hrs by PAMPA-BBB assay; assay type: ADME; details: read-out: permeability
# HT-22 [4] = test: Neuroprotective activity against glutamate-induced cytotoxicity in mouse HT22 cells assessed as cell viability at 5 uM measured after 24 hrs by MTT assay (reference value: 30%); assay type: functional; details: HT-22, 24 h, read-out: Activity
# [5] = molecular target: Acetylcholinesterase (Homo sapiens) (UniProt P22303); test: Inhibition of human erythrocyte AChE at 10 uM using acetylthiocholine chloride as substrate preincubated for 15 mins followed by substrate addition and measured at 1 min time interval by Ellman's method relative to control
# Beta-secretase 1 = Beta-secretase 1 (Homo sapiens, UniProt P56817); test: Inhibition of recombinant human BACE1 preincubated with enzyme for 20 mins followed by addition of Rh-EVNLDAEFK-Quencher as substrate measured after 60 mins by FRET assay
# HT-22 [6] = test: Neuroprotective activity against glutamate-induced intracellular oxidative stress in mouse HT22 cells assessed as inhibition of ROS production at 5 uM measured after 12 hrs by DCFH-DA probe based fluorescence method relative to control; assay type: functional, cell-based
# BV-2 [7] = test: Antineuroinflammatory activity in mouse BV2 cells assessed as decrease in LPS-induced iNOS mRNA expression incubated for 30 mins followed by LPS stimulation for 12 hrs by qPCR method; assay type: functional, cell-based
# BV-2 [8] = test: Antineuroinflammatory activity in mouse BV2 cells assessed as decrease in LPS-induced TNFalpha expression incubated for 30 mins followed by LPS stimulation for 12 hrs by qPCR method; assay type: functional, cell-based
# BV-2 [9] = test: Antineuroinflammatory activity in mouse BV2 cells assessed as decrease in LPS-induced IL-1beta expression incubated for 30 mins followed by LPS stimulation for 12 hrs by qPCR method; assay type: functional, cell-based
# BV-2 [10] = test: Antineuroinflammatory activity in mouse BV2 cells assessed as decrease in LPS-induced iNOS expression incubated for 30 mins followed by LPS stimulation for 16 hrs by Western blot analysis; assay type: functional, cell-based
# BV-2 [11] = test: Antineuroinflammatory activity in mouse BV2 cells assessed as decrease in LPS-induced secretion of TNFalpha incubated for 30 mins followed by LPS stimulation for 16 hrs by ELISA; assay type: functional, cell-based
# BV-2 [12] = test: Antineuroinflammatory activity in mouse BV2 cells assessed as decrease in LPS-induced secretion of IL-1beta incubated for 30 mins followed by LPS stimulation for 16 hrs by ELISA; assay type: functional, cell-based
# BV-2 [13] = test: Neuroprotective activity against glutamate-induced cell damage in […] assessed as change in cell morphology at 5 uM measured after 24 hrs; assay type: functional, cell-based
# HT-22 [14] = test: Neuroprotective activity against glutamate-induced intracellular oxidative stress in mouse HT22 cells assessed as increase in GSH level at 5 uM measured after 12 hrs relative to control; assay type: functional, cell-based
# Cholinesterase (Homo sapiens), sequence (P06276 whole entry): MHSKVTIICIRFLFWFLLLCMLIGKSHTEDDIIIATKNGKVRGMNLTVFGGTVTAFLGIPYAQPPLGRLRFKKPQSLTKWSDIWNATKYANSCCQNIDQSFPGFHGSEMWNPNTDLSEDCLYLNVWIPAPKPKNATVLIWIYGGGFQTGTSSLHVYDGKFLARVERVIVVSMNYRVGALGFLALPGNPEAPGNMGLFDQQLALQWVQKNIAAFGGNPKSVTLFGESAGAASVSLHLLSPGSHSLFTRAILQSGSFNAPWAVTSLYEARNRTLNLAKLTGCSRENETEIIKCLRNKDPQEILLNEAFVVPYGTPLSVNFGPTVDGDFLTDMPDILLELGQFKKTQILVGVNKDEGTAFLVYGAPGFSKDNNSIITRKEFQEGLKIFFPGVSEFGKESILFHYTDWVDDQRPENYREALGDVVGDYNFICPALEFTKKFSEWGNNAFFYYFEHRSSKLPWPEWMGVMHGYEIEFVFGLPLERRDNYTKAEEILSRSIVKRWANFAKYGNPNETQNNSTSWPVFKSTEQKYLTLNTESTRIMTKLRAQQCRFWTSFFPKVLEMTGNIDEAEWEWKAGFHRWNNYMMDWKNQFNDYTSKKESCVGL
# Acetylcholinesterase (Homo sapiens), sequence (P22303 whole entry): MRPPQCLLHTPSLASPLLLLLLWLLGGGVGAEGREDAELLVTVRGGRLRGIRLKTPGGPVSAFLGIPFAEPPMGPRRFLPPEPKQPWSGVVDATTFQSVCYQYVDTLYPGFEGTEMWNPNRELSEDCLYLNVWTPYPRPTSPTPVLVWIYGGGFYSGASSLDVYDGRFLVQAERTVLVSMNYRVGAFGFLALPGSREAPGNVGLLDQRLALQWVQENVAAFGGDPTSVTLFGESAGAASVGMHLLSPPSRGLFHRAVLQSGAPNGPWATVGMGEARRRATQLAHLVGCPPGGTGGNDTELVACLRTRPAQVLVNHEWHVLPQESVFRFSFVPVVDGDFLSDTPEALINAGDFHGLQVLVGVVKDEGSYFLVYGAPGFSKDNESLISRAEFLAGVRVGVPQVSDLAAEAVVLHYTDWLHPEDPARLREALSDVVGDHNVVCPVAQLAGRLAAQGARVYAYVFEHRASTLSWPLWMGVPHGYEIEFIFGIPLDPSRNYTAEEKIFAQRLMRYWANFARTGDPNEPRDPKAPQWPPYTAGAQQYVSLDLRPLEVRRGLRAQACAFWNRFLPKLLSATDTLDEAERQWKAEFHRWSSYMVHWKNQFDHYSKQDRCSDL
# Beta-secretase 1, sequence (P56817 whole entry): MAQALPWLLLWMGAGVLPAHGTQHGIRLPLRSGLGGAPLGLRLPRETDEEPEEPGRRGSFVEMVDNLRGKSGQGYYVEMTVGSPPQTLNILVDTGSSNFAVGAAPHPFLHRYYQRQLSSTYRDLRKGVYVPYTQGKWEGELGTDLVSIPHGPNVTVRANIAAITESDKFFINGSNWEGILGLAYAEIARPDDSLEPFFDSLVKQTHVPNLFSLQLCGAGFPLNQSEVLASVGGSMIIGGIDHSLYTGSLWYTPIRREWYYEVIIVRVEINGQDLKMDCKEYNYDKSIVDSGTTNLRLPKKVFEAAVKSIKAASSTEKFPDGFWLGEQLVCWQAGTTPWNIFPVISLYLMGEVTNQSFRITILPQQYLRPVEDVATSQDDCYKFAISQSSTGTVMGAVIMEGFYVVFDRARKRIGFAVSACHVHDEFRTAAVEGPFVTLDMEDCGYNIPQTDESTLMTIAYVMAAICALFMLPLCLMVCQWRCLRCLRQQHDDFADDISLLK
SMILES,inhibition [1] [%],IC50 (BV-2 [2]) [µM],"Papp at 10 h, 100 ug/ml [3] [×10⁻⁶ cm/s]",viability at 5 µM (HT-22 [4]) [%],inhibition [5] [%],other results
c1cc(-c2nc3ccccc3[nH]2)nc(N2CCc3ccccc3C2)c1,23.2,7.33,15.9,80.3,10.1,–
COc1ccc2nc(-c3cccc(N4CCc5ccccc5C4)c3)[nH]c2c1,5.4,8.28,5.6,–,10.4,–
Clc1ccc2nc(-c3cccc(N4CCc5ccccc5C4)n3)[nH]c2c1,19.8,6.94,16.7,–,24.3,IC50 (Beta-secretase 1): 1.8 µM
Fc1ccc2c(c1)CCN(c1cccc(-c3nc4ccc(F)cc4[nH]3)n1)C2,33.7,6.43,14,71.1,19.9,–
Fc1ccc2nc(-c3cccc(N4CCc5ccccc5C4)n3)[nH]c2c1,24.2,5.7,14.5,67.8,6.6,–
Fc1ccc2nc(-c3cccc(N4CCc5ccccc5C4)c3)[nH]c2c1,17.1,5.42,12.6,–,9.5,–
Clc1cc2nc(-c3cccc(N4CCc5ccccc5C4)c3)[nH]c2cc1Cl,3.7,7.93,9.9,–,16.2,–
Fc1cc2[nH]c(-c3cccc(N4CCc5ccccc5C4)c3)nc2cc1Cl,0.5,> 10,10.1,48.9,10.9,–
FC(F)(F)c1ccc2nc(-c3cccc(N4CCc5ccccc5C4)n3)[nH]c2c1,18.6,9.33,5.4,–,20.4,IC50 (Beta-secretase 1): 3.6 µM
Fc1cc2nc(-c3cccc(N4CCc5ccccc5C4)n3)[nH]c2cc1F,8.9,6.58,13.9,–,7.2,–
Cc1ccc2nc(-c3cccc(N4CCc5ccccc5C4)c3)[nH]c2c1,20.7,5.7,9.6,–,5,–
Oc1ccc2nc(-c3cccc(N4CCc5ccccc5C4)c3)[nH]c2c1,6.8,5.95,8.6,–,11.2,–
COc1ccc2c(c1)CCN(c1cccc(-c3nc4ccc(OC)cc4[nH]3)n1)C2,9.7,> 10,11.5,–,4.7,–
FC(F)(F)Oc1ccc2nc(-c3cccc(N4CCc5ccccc5C4)n3)[nH]c2c1,11.7,9.74,10,62.1,7.6,IC50 (Beta-secretase 1): 1.1 µM
Clc1ccc2nc(-c3cccc(N4CCc5ccccc5C4)c3)[nH]c2c1,27.6,> 10,4.9,67.6,3.4,IC50 (Beta-secretase 1): 1.3 µM
FC(F)(F)c1ccc2nc(-c3cccc(N4CCc5ccccc5C4)c3)[nH]c2c1,11.3,7.72,8.7,–,11.9,–
Oc1ccc2nc(-c3cccc(N4CCc5ccccc5C4)n3)[nH]c2c1,45.6,3.8,13.8,98.8,7.5,–
Nc1cccc2nc(-c3cccc(N4CCc5ccccc5C4)c3)[nH]c12,25.9,> 10,13,94.9,4.8,–
COc1ccc2c(c1)CCN(c1cccc(-c3nc4ccc(OC)cc4[nH]3)c1)C2,0.3,> 10,7.6,93.1,6,–
CC(C)(C)c1ccc2nc(-c3cccc(N4CCc5ccccc5C4)n3)[nH]c2c1,3.8,> 10,–,–,24.6,–
COc1ccc2nc(-c3cccc(N4CCc5ccccc5C4)n3)[nH]c2c1,35.6,5.07,16.8,91.8,4.5,inhibition (HT-22 [6]): Active; Activity (BV-2 [7]): Dose-dependent effect; Activity (BV-2 [8]): Dose-dependent effect; Activity (BV-2 [9]): Dose-dependent effect; Activity (BV-2 [10]): Dose-dependent effect; Activity (BV-2 [11]): Dose-dependent effect; Activity (BV-2 [12]): Dose-dependent effect; Activity (BV-2 [13]): Active; Activity (HT-22 [14]): Active
c1cc(-c2nc3ccccc3[nH]2)cc(N2CCc3ccccc3C2)c1,18.3,6.08,8.5,–,6.3,–
